Test system: IL-12 p40 mRNA
Assay: Northern blot of IL-12 p40 mRNA in IFN-γ/SAC-stimulated human PBMC
Type: cell-based
Conditions: hPBMC; for IL-12 p40 mRNA accumulation: 6 h after SAC
Procedure: Northern blot analysis was performed to examine the mRNA levels of IL-12 p35 and p40. Human PBMC and the human monocyte cell line THP-1 cells were stimulated with IFN-γ/SAC in the presence or absence of Compound 1. Human PBMC were isolated by centrifugation using Ficoll-Paque (Pharmacia Biotech, Uppsala, Sweden) and prepared in RPMI medium supplemented with 10% fetal calf serum (FCS), 100 U/ml penicillin, and 100 μg/ml streptomycin, in a 96-well plate with 5×10^5 cells/well. The cells were then primed with IFN-γ (100 U/ml) and followed by 0.01% SAC or 1 μg/ml LPS, in the presence of different concentrations of Compound 2 or other compounds. The test compounds were prepared in DMSO and the final DMSO concentration was adjusted to 0.25% in all cultures, including the compound-free control. Cell-free supernatants were taken 18 h later for the measurement of cytokines. The THP-1 cells were obtained from American Type Culture Collection (Manassas, Va.) and were cultured in RPMI 1640 (ATCC, Manassas, Va.), supplemented with 10% FCS (ATCC, Manassas, Va.), and 1% penicillin/Streptomycin (Gibco-BRL, New York, N.Y.). Total RNA was isolated and subjected to Northern blot analysis using IL-12 p35 and p40 cDNA probes. We first examined the kinetics of mRNA accumulation in cultures of hPBMC and THP-1 cells primed with IFN-γ followed by SAC stimulation in the presence or absence of 1 μM Compound 1.
We conducted a dose-response study of the inhibitory effects of Compound 1 on IL-12 mRNA expression in IFN-γ/SAC-stimulated hPBMC. Because both IL-12 p35 and p40 mRNA levels were maximal at 6 h after the addition of SAC, this time point was selected for the dose-response analysis.

In the case of `C(=NNc1nc(OCCc2ccccn2)nc(N2CCOCC2)n1)c1c[nH]c2ccccc12` [Compound 1, N-(1H-indol-3-ylmethylene)-N′-[4-morpholin-4-yl-6-(2-pyridin-2-yl-ethoxy)-[1,3,5]triazin-2-yl]-hydrazine], the “expression of the mRNA for the p40 subunit” value (1 μM Compound 1) is reported as “reduced significantly but incompletely”, the “IL-12 p40 mRNA accumulation” value (1 nM) is reported as “barely inhibited” and the “IL-12 p40 mRNA accumulation” value (10 nM) is reported as “maximum, though still incomplete inhibition”.
